Results: ChEMBL document CHEMBL1147456, “Binding modes of 6,7 di-substituted 4-anilinoquinoline-3-carbonitriles to EGFR” (Bioorg Med Chem Lett, 2004)

Biological target: Epidermal growth factor receptor (Homo sapiens, UniProt P00533)
Assay: Concentration required to inhibit autophosphorylation of cytoplasmic domain of epidermal growth factor receptor (EGFR)

Sequence of Epidermal growth factor receptor (P00533 whole entry, the tested form may be a part): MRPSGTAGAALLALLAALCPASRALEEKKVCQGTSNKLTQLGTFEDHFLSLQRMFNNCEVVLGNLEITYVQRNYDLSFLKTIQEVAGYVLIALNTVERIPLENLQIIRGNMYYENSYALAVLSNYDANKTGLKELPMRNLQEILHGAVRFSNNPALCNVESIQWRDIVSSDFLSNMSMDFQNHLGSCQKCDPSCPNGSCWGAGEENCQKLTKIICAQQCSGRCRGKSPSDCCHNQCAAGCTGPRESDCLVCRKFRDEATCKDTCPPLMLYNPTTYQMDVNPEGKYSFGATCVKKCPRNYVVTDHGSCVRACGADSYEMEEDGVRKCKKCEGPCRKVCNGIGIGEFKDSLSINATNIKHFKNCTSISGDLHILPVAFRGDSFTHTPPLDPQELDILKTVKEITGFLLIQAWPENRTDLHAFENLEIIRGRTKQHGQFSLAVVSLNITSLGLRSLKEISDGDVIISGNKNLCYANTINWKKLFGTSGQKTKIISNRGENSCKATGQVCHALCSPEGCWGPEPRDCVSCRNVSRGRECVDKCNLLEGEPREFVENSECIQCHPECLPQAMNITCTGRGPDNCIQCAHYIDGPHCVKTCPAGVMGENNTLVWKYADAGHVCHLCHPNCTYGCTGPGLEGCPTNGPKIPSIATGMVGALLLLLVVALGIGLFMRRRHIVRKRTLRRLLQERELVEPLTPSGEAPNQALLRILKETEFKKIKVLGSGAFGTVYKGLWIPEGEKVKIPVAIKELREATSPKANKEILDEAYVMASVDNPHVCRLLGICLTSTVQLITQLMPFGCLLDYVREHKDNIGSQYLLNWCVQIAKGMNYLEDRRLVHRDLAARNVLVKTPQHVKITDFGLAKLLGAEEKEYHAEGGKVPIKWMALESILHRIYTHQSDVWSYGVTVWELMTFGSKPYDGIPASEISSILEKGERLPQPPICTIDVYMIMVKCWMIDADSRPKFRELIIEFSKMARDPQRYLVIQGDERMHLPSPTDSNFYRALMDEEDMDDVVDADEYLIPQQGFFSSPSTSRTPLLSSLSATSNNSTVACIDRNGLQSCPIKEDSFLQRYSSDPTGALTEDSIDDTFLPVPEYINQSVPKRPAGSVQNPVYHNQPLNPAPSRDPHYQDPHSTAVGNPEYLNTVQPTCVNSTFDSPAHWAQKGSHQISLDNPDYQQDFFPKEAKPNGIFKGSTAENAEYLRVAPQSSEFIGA

SMILES: COC[C@@H]1CCCN1CC#CC(=O)Nc1ccc2ncc(C#N)c(Nc3cccc(Br)c3)c2c1
- IC50: 150 nM
